{"source": "patent US20190183927A1", "about": "“MEDICAL AND NUTRITIONAL COMPOSITIONS AND METHODS OF USE” (Sulfilatec, Inc., priority 2016, published 2019)", "key": {"[1]": {"system": "acute heart failure patients", "settings": "cited from earlier work"}, "salt sensitive Dahl rats [2]": {"system": "salt sensitive Dahl rats", "assay": "Survival of salt sensitive Dahl rats on high salt (8% NaCl) diet with or without NaBr, 10 week study", "type": "in vivo, rat", "description": "Control rats received AIN76A without supplemental chloride or bromide. 9 rats per study arm.\nDahl rats were administered a base diet of AIN76A with 8% NaCl, while a parallel arm was administered AIN76A with 8% NaCl and 300 mg of NaBr per kg of food. Mortality events were counted over the 10 week study."}, "[3]": {"system": "spontaneously hypertensive rat (SHR)", "assay": "10 week daily dietary Br^− administration in SHR disease model (heart weight, survival, urinary protein)", "type": "in vivo", "description": "(FIG. 5 A-B) Heart and kidney weights from 10 week repeat dosing study in SHR model. Br^− administered daily via diet, with AIN-76a as base diet. WKY served as genetic control. Both kidneys per animal weighed together. […] (FIG. 5C-D) Heart and kidney weights from panels A-B normalized to body weight. […] (FIG. 5E) Rats were administered a diet of AIN76A with or without 10 mg NaBr per kg feed (“SHR” and “SHR+Br” study arms, […]). Survival probability was calculated between SHR rats receiving dietary Br— and SHR rats receiving AIN76A control diet over a 10 week study period. As a second control, Wistar Kyoto (WKY) rats were fed AIN76A control diet over the same period. 8 rats per study arm.\nEight SHR animals received AIN76A diet for 10 weeks while 8 SHR animals received AIN76A supplemented with 10 mg NaBr/kg diet."}, "[4]": {"system": "spontaneously hypertensive rat (SHR)", "assay": "Cardiac interstitial fibrosis, Masson's Trichrome staining, SHR", "type": "in vivo", "settings": "10 mg NaBr per kg AIN-76a, 10 weeks, p<0.0001", "description": "(§1) AIN-76A was base diet for all animals. […] Fibrosis determined from 5 μm tissue sections stained with Masson's Trichrome. […] Approximately 25-30 images were collected and processed per animal.\nFollowing conclusion of the in vivo study, rat hearts were formalin-fixed, paraffin-embedded, and 5 μm-thick sections were obtained for histochemical analysis."}, "salt sensitive Dahl rats [5]": {"system": "salt sensitive Dahl rats", "assay": "Cardiac interstitial fibrosis, Masson's Trichrome staining, Dahl rats on high salt diet", "type": "in vivo, rat", "settings": "300 mg NaBr per kg AIN-76a+8% NaCl, 10 weeks, p<0.0001", "description": "as §1"}, "[6]": {"system": "spontaneously hypertensive rat (SHR)", "assay": "Blood pressure and heart rate (tail cuff) after single IP administration of NaBr in SHR", "type": "in vivo", "settings": "single IP 154.5 μg NaBr per kg", "description": "(A) In 10 week-old male SHR, single administration of Br^− reduced systolic and diastolic blood pressures compared to saline control. […] (C-D) Measured values for systolic (C) and diastolic (D) blood pressure, denoting statistical significance where achieved. 154.5 μg NaBr per kg rat body weight injected via IP. n=8 in Br Treatment group, =5 in saline control. BP & HR measured via tail cuff. *:p<0.05, T test.\n(§2) The inventors next asked whether Br^− exerts any short-term activity in addition to the improved cardiac fibrosis noted after 10 weeks administration. Returning to the SHR preclinical model of disease, the inventors specifically asked whether Br^− administration modulates certain biomarkers associated with cardiovascular disease at one day post-administration. To this end, Br^− was administered to 8 SHR via intraperitoneal (IP) injection with an estimated 0.154 μg NaBr per gram body weight. For control, 8 SHR were administered saline via IP injection containing an estimated 4 ng NaBr per gram body weight. […] Moreover, the inventors believe that Br^− achieves its cardiovascular and renal therapeutic activities in part via modulation of natriuretic peptide signaling."}, "[7]": {"system": "brain natriuretic peptide (BNP)", "assay": "Serum BNP by ELISA after single IP administration of NaBr in SHR", "type": "in vivo, rat", "settings": "single IP 154.5 μg NaBr per kg, one day post-administration, p<0.05", "description": "154.5 μg NaBr per kg rat body weight injected via IP. n=8 in Br Treatment group, =5 in saline control. Baseline serum collection occurred two days prior to treatment. *: p<0.05, T test.\nas §2"}, "[8]": {"settings": "in vivo; cited from earlier work"}, "[9]": {"settings": "dogs that do not respond to an initial course of Br^− treatment; cited from earlier work"}, "[10]": {"settings": "humans, in some circumstances, due to renal reabsorption; cited from earlier work"}, "[11]": {"assay": "Serum Br^− concentration in Dahl rats after 10 weeks on diet (mass spectrometry)", "quoted_text": "(FIG. 2A) Serum Br^− concentrations from rats fed a daily diet over 10 weeks of “AIN-76A”, “AIN-76A+8% NaCl”, “AIN-76A+Br”, or “AIN-76A+8% NaCl+Br”. […] The two diets containing 8% NaCl (eg. “AIN-76A+8% NaCl” and “AIN-76A+8% NaCl+Br”) were fed to Dahl rats while the remaining two diets (eg. “AIN-76A” and “AIN-76A+Br”) were fed to SHR, as indicated in panel A. Serum Br^− measurements were determined using mass spectrometry.\nThus, Dahl rats were fed a diet supplemented with 8% NaCl (AIN76A base diet) over the course of 10 weeks.\nTo test the invention, another group of Dahl rats were administered AIN76A supplemented with 8% NaCl and 300 mg NaBr per kg of food. Considering that the rat body weights increased from around 300 g to around 400 g over the course of the study, and assuming that the rats ate a relatively constant amount of 25 g of food per day, the daily consumption of Br^− ranged from approximately 14.6 to 19.4 mg Br^− per kg body weight, in accordance with the invention."}, "[12]": {"assay": "Serum Br^− concentration in spontaneously hypertensive rats (SHR) after 10 weeks on diet, safety", "quoted_text": "(FIG. 2A) Serum Br^− concentrations from rats fed a daily diet over 10 weeks of “AIN-76A”, “AIN-76A+8% NaCl”, “AIN-76A+Br”, or “AIN-76A+8% NaCl+Br”. Salt sensitive Dahl rats as well as Spontaneously Hypertensive Rats (SHR) were used in these studies. The two diets containing 8% NaCl (eg. “AIN-76A+8% NaCl” and “AIN-76A+8% NaCl+Br”) were fed to Dahl rats while the remaining two diets (eg. “AIN-76A” and “AIN-76A+Br”) were fed to SHR, as indicated in panel A. Serum Br^− measurements were determined using mass spectrometry.\nRats were administered 10 mg of NaBr per kg of AIN76A diet for 10 weeks. At the end of the study, serum Br^− levels in Br-treated rats were compared to serum Br^− levels in SHR on AIN76A as well as Wistar rats on AIN76A."}, "[13]": {"settings": "acute decompensated heart failure (Sackner-Bernstein et al. 2005)"}}, "note": "Entries after “also recorded” stand apart in the source; their conditions may differ."}
{"compound": "CC[C@H](C)[C@@H]1NC(=O)[C@H](CCCNC(=N)N)NC(=O)[C@H](CC(=O)O)NC(=O)[C@H](CCSC)NC(=O)[C@H](CCCNC(=N)N)NC(=O)CNC(=O)CNC(=O)[C@H](Cc2ccccc2)NC(=O)[C@@H](NC(=O)[C@H](CO)NC(=O)[C@H](CO)NC(=O)[C@H](CCCNC(=N)N)NC(=O)[C@H](CCCNC(=N)N)NC(=O)[C@H](CC(C)C)NC(=O)[C@@H](N)CO)CSSC[C@@H](C(=O)N[C@@H](CC(N)=O)C(=O)N[C@@H](CO)C(=O)N[C@@H](Cc2ccccc2)C(=O)N[C@@H](CCCNC(=N)N)C(=O)N[C@@H](Cc2ccc(O)cc2)C(=O)O)NC(=O)CNC(=O)[C@H](CC(C)C)NC(=O)CNC(=O)[C@H](CO)NC(=O)[C@H](CCC(N)=O)NC(=O)[C@H](C)NC(=O)CNC1=O", "note": "[carperitide]", "values": [{"measurement": "in-hospital mortality", "setting": "[1]; acute heart failure patients in Japan (Matsue et al. 2015)", "result": "increased in-hospital mortality"}]}
{"compound": "nesiritide", "values": [{"measurement": "mortality", "setting": "[1]; [13]", "result": "increased mortality"}, {"measurement": "renal function", "setting": "[1]; [13]", "result": "worsening renal function"}]}
{"compound": "[Br-].[Na+]", "note": "[Br^−, sodium bromide]", "values": [{"measurement": "survival compared to High Salt alone (log rank test)", "setting": "salt sensitive Dahl rats [2]; 9 rats per arm, p<0.001", "result": "significantly improved survival"}, {"measurement": "survival probability", "setting": "salt sensitive Dahl rats [2]; AIN76A+8% NaCl with or without 300 mg NaBr per kg feed, 10 weeks", "result": 67, "unit": "%"}, {"measurement": "heart weight (absolute)", "setting": "[3]; 10 mg NaBr per kg AIN-76a, 10 weeks, vs SHR on AIN-76a alone, p<0.05", "result": "significantly reduced; also recorded: Statistically significant reduction"}, {"measurement": "treatment-induced mortality or electrolyte disturbances", "setting": "[3]; 10 mg NaBr/kg diet, 10 weeks", "result": "No treatment-induced mortality or electrolyte disturbances"}, {"measurement": "survival probability among groups", "setting": "[3]; 10 week study, 8 rats per arm", "result": "no statistical difference in survival"}, {"measurement": "heart weight normalized to body weight", "setting": "[3]; 10 weeks", "result": "this trend was preserved; also recorded: Trends observed in absolute weights are preserved"}, {"measurement": "urinary microprotein/creatinine ratio (urinary protein levels)", "setting": "[3]; after one day on study diet, persisted to end of study", "result": "significantly lower; also recorded: significantly reduced"}, {"measurement": "cardiac fibrosis (Masson's Trichrome blue staining)", "setting": "[4]", "result": "dramatic reduction in blue staining; also recorded: less cardiac fibrosis"}, {"measurement": "cardiac fibrosis (Masson's Trichrome blue staining)", "setting": "salt sensitive Dahl rats [5]", "result": "less cardiac fibrosis"}, {"measurement": "systolic blood pressure", "setting": "[6]; one day post-administration, vs saline control", "result": "statistically significant reductions; also recorded: reduced"}, {"measurement": "heart rate", "setting": "[6]; p=0.052", "result": "possible reduction"}, {"measurement": "diastolic blood pressure", "setting": "[6]; vs saline control", "result": "reduced"}, {"measurement": "serum concentration of BNP peptide", "setting": "[7]", "result": "statistically significant increase; also recorded: significantly modulated"}, {"measurement": "circulating Br^− level at which the anti-epilepsy effect occurs", "setting": "[8]", "result": "> 6", "unit": "mM"}, {"measurement": "therapeutic serum Br^− for sedative effect", "setting": "[9]", "result": "above 25 mM"}, {"measurement": "half-life", "setting": "[10]", "result": "≥ 170", "unit": "h"}, {"measurement": "mean serum Br^−", "setting": "[11]; 10 weeks on diet, end of study", "result": 246.50, "unit": "µM"}, {"measurement": "toxicity assessment of serum Br^− concentrations", "setting": "[11]; daily diet over 10 weeks", "result": "well below those levels required to induce bromide-associated toxicity"}, {"measurement": "mean serum Br^−", "setting": "[12]; 10 mg NaBr per kg AIN76A diet, 10 weeks", "result": 281.7, "unit": "µM"}, {"measurement": "toxicity assessment of serum Br^− concentrations", "setting": "[12]; daily diet over 10 weeks", "result": "below the toxicity threshold"}]}
